From article PMC7136958, “Targeting the pregnane X receptor using microbial metabolite mimicry” (EMBO Molecular Medicine, 2020)
In brackets after ≈: the same amount, converted by molar mass. Several values for one entry are separate records, joined by “and”; a condition that tells them apart may be missing. Identical values can stand only once. Like-named read-outs stand apart in the source and are kept apart here.

Legend:
Cyp3a11 = assay: PXR target gene expression in C57BL/6 mice after FKK6 gavage; format: in vivo, mouse; conditions: both sexes, C57BL/6J, mouse, 500 μM, 5 doses (60 h), individual mice
Experimental: (§1) (Scheer et al, 2010) were administered 10% DMSO (n = 3) or FKK6 (n = 3) in 3 or 5 doses, with each dose interval of 12 h. Each gavage dose volume was 100 μl. 2–4 h after the dosing period, mice were sacrificed, and tissues were harvested for further analysis. The mouse studies were performed three independent times over an 18‐month period. All purchased mice were acclimatized in the Einstein vivarium for ~ 2 weeks before experiments started. […]. The room temperature was maintained at 25 ± 2°C with 55 ± 5% humidity. All studies were approved by the Institute of Animal Studies at the Albert Einstein College of Medicine, INC (IACUC # 20160706, 20160701 and preceding protocols), and specific animal protocols were also approved by additional protocols (IACUC# 20170406, 20170504) and Animal Care and Use Review Office (ACURO) of the US Army Medical Research and Materiel Command (PR160167, W81XWH‐17‐1‐0479). […]
(§2) Mouse small, large intestine and liver samples were collected and total RNAs were […]
(§3) isolated. […] Each tissue PCR was […]
(§4) repeated in quadruplicate. The expression was normalized to internal control, GAPDH. ( b,d) The histograms show mean (95 %CI) values, c, mean (SD) and two way ANOVA followed with Tukey's post hoc test. The entire experiment was repeated n = 3 for reproducibility. The data shown is one representative experiment .

C57BL/6 mice = assay: as above; format: in vivo, mouse; conditions: for Cyp3a11 fold expression / mdr1 fold expression: Fig 4d
Experimental: as §1, §2, §3, §4

mdr1a = assay: as above; format: in vivo, mouse; conditions: both sexes, C57BL/6J, mouse, 500 μM, 5 doses (60 h), individual mice
Experimental: as §1, §2, §3, §4

[1] = Solubility of FKK6 in 10% DMSO; format: physicochemical; conditions: aqueous, aqueous with cosolvent or surfactant or cyclodextrin, room temperature, read-out: maximal solubility (saturation concentration)
Experimental: FKK6 was solubilized to saturation concentrations (~ 500 μM) at room temperature in 10% DMSO (DMSO maximum tolerated dose in mice is ~ 2.5 g/kg/day for 35 consecutive days) (Caujolle et al, 1967a; Brayton, 1986).

NF-κB = assay: TNF-α-induced NF-κB reporter assay in LS174T PXR-KO cells; conditions: for NFkB NanoLuc luminescence, aver / NFkB %max: LS174T PXR-KO, EXP3; for NFkB %max: TNFa 5 ng/ml = 100
Excerpt: In early passage PXR‐KO cells, we used PXR and NF‐κB reporter‐co‐transfected and NF‐κB reporter‐transfected PXR‐KO cell line.
CRISPR/Cas9‐mediated knockout cells were generated by Synthego Corporation (Redwood City, CA, USA). Briefly, cells were first tested negative for mycoplasma. Guide RNA was selected for high activity, specificity, and activity to create premature stop codons through frameshift mutations in the coding region via insertions and/or deletions (Indels) within exon 2 of the gene encoding human PXR (NR1I2 transcript ID ENST00000337940). […] To generate these cells, ribonucleoproteins (RNPs) containing the Cas9 protein and synthetic chemically modified sgRNA (Synthego) were electroporated into the cells using Synthego's optimized protocol. Editing efficiency is assessed upon recovery, 48 h post‐electroporation. Genomic DNA is extracted from a portion of the cells, PCR‐amplified, and sequenced using Sanger sequencing. The resulting chromatograms are processed using Synthego Inference of CRISPR Edits software (ice.synthego.com).

hPXR mice = assay: DSS-induced acute colitis in hPXR mice; format: in vivo, mouse
Experimental: For these studies, 7‐ to 8‐week‐old female (DeVoss & Diehl, 2014) hPXR (mice expressing the human PXR gene) and pxr ^−/− mice (C57BL/6 background) were bred and each genotype was separated into two treatment groups using a random allocation method via coin toss—(i) n = 3 control (0.8% DMSO in 100 μl drinking water) and (ii) n = 3 FKK6 (200 μM (0.4 mg/kg/day) in 0.8% DMSO in 100 μl drinking water) administered once per day via oral gavage, and via intrarectal gavage for a total of 10 consecutive days The dose was chosen based on the extrapolation of the total dose delivered over 10 days to mice (~ 4 mg/kg), which is equivalent to that delivered to mice for determining target gene expression over 3–5 doses (3–5 mg/kg). […] Fecal pellets were collected prior to the initiation of the treatment protocol. All mice were starved overnight (12 h) to allow for smooth intrarectal delivery; however, the mice were allowed to feed ad libitum during the day. After 10 days, the mice were sacrificed and organs/tissues/feces harvested for further study. Prior to necropsy, mice were administered FITC‐dextran, and mouse serum was collected for the FITC‐dextran assay as previously described (Vetizou et al, 2015). The experimenter was not blinded to treatment allocation; however, the pathologist (KS) evaluating histologic scores was blinded to treatment allocation. All studies were approved by the Institute of Animal Studies at the Albert Einstein College of Medicine, INC (IACUC # 20160706 and preceding protocols). Colitis scoring was performed as previously published, and post‐examination masking was conducted (Kim et al, 2012; Meyerholz & Beck, 2018).
For RT–qPCR of colon tissue for cytokine expression data, new experiments were conducted with 3% DSS and the identical FKK6 dose (n = 3 mice/group) and scheduled as above. RT–qPCR was performed using PowerUp™ SYBR® Green Master Mix (A25741, Thermo Fisher Scientific) and primers specific for IL‐10, TNF‐α, TNFR2, and […]. Each target gene was analyzed in quadruplicate. Normalizing controls included GAPDH (used to illustrate data) and TBP.

[2] = 500 μM, 5 doses (60 h), individual mice
[3] = FKK6 200 μM, day 10, individual mice

C#CCC(O)(c1ccncc1)c1cc2ccccc2n1S(=O)(=O)c1ccccc1 (centres unmarked) [FKK6]
fold induction at 60 h, 500 µM (Cyp3a11; in vivo, read-out: Cyp3a11 fold induction, Large Intestine): 2.55 | fold induction at 60 h (Cyp3a11; liver, oral, 500 μM FKK6 gavage every 12 h): 1.72 | Cyp3a11 fold induction, Liver (C57BL/6 mice; 500 μM FKK6 gavage every 12 h, 5 doses (60 h), individual mice): 1.38 fold and 0.89 fold | Cyp3a11 fold induction, Large Intestine (C57BL/6 mice; [2]): 2.23 fold and 0.59 fold | Cyp3a11 fold induction, Small Intestine (C57BL/6 mice; [2]): 1.06 fold and 0.22 fold and 0.76 fold | mdr1a fold induction, Large Intestine (C57BL/6 mice; [2]): 1.77 fold and 1.33 fold | mdr1a fold induction, Liver (C57BL/6 mice; [2]): 1.83 fold | mdr1a fold induction, Small Intestine (C57BL/6 mice; [2]): 2.65 fold and 1.8 fold and 0.95 fold | mdr1b fold induction, Large Intestine (C57BL/6 mice; [2]): 0.89 fold and 0.42 fold and 0.77 fold | mdr1b fold induction, Liver (C57BL/6 mice; [2]): 1.65 fold and 1.12 fold and 0.6 fold | mdr1b fold induction, Small Intestine (C57BL/6 mice; [2]): 2.4 fold and 1.54 fold and 0.43 fold | Cyp3a11 fold expression (C57BL/6 mice; Large Intestine): 1.73 fold and 2.49 fold and 1.98 fold | mdr1 fold expression (C57BL/6 mice; Large Intestine): 1.58 fold and 1.34 fold and 1.57 fold | Cyp3a11 fold expression (C57BL/6 mice; Liver): 1.21 fold and 1.31 fold and 1.6 fold | mdr1 fold expression (C57BL/6 mice; Liver): 0.95 fold and 0.87 fold and 0.81 fold | Cyp3a11 fold expression (C57BL/6 mice; Small Intestine): 1.28 fold and 1.07 fold and 0.75 fold | mdr1 fold expression (C57BL/6 mice; Small Intestine): 1.46 fold and 2.26 fold and 1.43 fold | PXR target gene (cyp3a11, mdr1a, mdr1b, mdr1) expression across organs (C57BL/6 mice; ~500 μM, 36 or 60 h): No significant effect | fold induction at 60 h, 500 µM (mdr1a; in vivo, read-out: mdr1a fold induction, Liver): 1.81 | fold induction at 60 h, 500 µM (mdr1a; large intestine, oral, read-out: mdr1a fold induction, Large Intestine): 1.27 | fold induction at 60 h, 500 µM (mdr1a; liver, oral, read-out: mdr1a fold induction, Liver): 3.05 | solubility [1]: ~500 µM (≈ 201 µg/mL) | NFkB NanoLuc luminescence, aver (NF-κB; 1 μM + TNFα 5 ng/ml): 70912.7 | NFkB %max (NF-κB; 1 μM + TNFα 5 ng/ml): 128.7% and 128.74% | NFkB NanoLuc luminescence, aver (NF-κB; 10 μM + TNFα 5 ng/ml): 56963.0 | NFkB %max (NF-κB; 10 μM + TNFα 5 ng/ml): 103.4% and 103.41% | NFkB NanoLuc luminescence, aver (NF-κB; 25 μM + TNFα 5 ng/ml): 50715.5 | NFkB %max (NF-κB; 25 μM + TNFα 5 ng/ml): 92.1% and 92.07% | NF-κB reporter activity (NF-κB; TNF-exposed PXR-KO cells): neither rifampicin nor FKK6 repressed | colon tissue IL-10 mRNA (hPXR mice; 3% DSS, FKK6 vs controls): significant increase | colon tissue TNF-α mRNA (hPXR mice; 3% DSS, FKK6 vs controls): decrease | colon tissue TNFR2 mRNA (hPXR mice; 3% DSS, FKK6 vs controls): decrease | colon tissue IL-17f mRNA (hPXR mice; 3% DSS, FKK6 vs vehicle): significant reduction | fecal lipocalin 2 (hPXR mice; FKK6 200 μM): only a trend in the reduction | serum FITC-dextran (hPXR mice; FKK6 200 μM): only a trend in the reduction | % weight loss from baseline (day 1 vs. day 10) (hPXR mice; FKK6 200 μM oral gavage plus intrarectal, once daily 10 days, individual mice): significantly reduced weight loss and 20% and 16% | colon length (hPXR mice; [3]): increased colon length and 5.2 cm and 5.6 cm and 5.1 cm | inflammation score (hPXR mice; [3]): substantially decreased and 3 and 5
